Measurements published in article PMC4103896, “Characterization and Evolutionary Implications of the Triad Asp-Xxx-Glu in Group II Phosphopantetheinyl Transferases” (PLoS ONE, 2014).

Legend:
Type in all cases: biochemical
[1] = target: T1, SchPPT (Streptomyces chattanoogensis, UniProt H9N836); assay: in vitro phosphopantetheinylation of scn ACP0-2, LC-MS; conditions: 2 mM CoA, 200 uM scn ACP0-2, 20 uM PPTase, 1.25 mM MgCl2, pH 7.5, 25 °C, 30 min
T1 construct: full-length group II (Sfp-type) PPTase; SchPPT cloned in pET28a (pHJ0024), E. coli; N-terminal His6 stated for the mutants

[2] = target: T2, Sppt (Synechocystis sp. PCC 6803, UniProt Q55185); assay: in vitro phosphopantetheinylation of sch FAS ACP, HPLC; conditions: 2 mM CoA, 200 uM sch FAS ACP, 20 uM Sppt, 1.25 mM MgCl2, pH 7.5, 25 °C, 30 min
T2 construct: gene slr0495; full-length

[3] = target: T3, Sppt (Synechocystis sp. PCC 6803, UniProt Q55185, Q112E); assay: as above; conditions: 2 mM CoA, 200 uM sch FAS ACP, 20 uM Sppt, 1.25 mM MgCl2, pH 7.5, 25 °C, 30 min
T3 construct: gene slr0495; full-length
T3 sequence (Q55185 whole entry Q112E): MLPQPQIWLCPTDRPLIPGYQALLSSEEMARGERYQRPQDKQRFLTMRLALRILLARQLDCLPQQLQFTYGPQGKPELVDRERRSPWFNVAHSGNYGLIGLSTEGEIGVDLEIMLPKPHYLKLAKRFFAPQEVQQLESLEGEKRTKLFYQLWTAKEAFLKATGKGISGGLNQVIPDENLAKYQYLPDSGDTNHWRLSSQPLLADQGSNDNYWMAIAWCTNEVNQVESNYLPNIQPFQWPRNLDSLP

T1 sequence (H9N836 entry or part of it): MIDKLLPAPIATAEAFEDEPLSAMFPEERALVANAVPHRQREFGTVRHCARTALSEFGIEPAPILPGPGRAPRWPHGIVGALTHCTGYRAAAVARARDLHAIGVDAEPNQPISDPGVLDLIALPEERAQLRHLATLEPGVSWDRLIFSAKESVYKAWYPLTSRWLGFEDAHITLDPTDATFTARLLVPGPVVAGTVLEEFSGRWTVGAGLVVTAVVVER
T2 sequence (Q55185 whole entry): as the sequence (Q55185 whole entry Q112E) above, with E112Q counted along it

**Q.** For `CC(C)(COP(=O)(O)OP(=O)(O)OC[C@H]1O[C@@H](n2cnc3c(N)ncnc32)[C@H](O)[C@@H]1OP(=O)(O)O)[C@@H](O)C(=O)NCCC(=O)NCCS` [CoA], which “in vitro phosphopantetheinylation of scn ACP0-2, LC-MS” value [1] is on record?
**A.** only wild type SchPPT but neither of the two mutants phosphopantetheinylated scn ACP0-2

**Q.** And the “in vitro phosphopantetheinylation of sch FAS ACP, HPLC” value [2]?
**A.** After incubation of sch FAS ACP with CoA in the presence of Sppt

**Q.** And the “in vitro phosphopantetheinylation of sch FAS ACP, HPLC” value [3]?
**A.** After incubation of sch FAS ACP with CoA in the presence of SpptQ112E
